Results on 25 molecules are retold here after patent US20220073536A1 (Rigel Pharmaceuticals, Inc., priority 2003, published 2022).

Bounds are passed on as bounds.

Experiment [1] concerns cultured human mast cells (CHMC). Nature of the experiment: CHMC low cell density IgE activation: tryptase assay. Particulars: IgE activation. It counts as cell-based. The method in brief: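 Tryptase release, fluorogenic substrate, 30 min RT. Prior anti-IgE stimulation of CHMC, 30 min, 37 °C, after 1 hr preincubation at 1000–1500 cells/well in MT; unstimulated wells received MT.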

Experiment [2] has the same test system. Nature of the experiment: CHMC low cell density ionomycin activation: tryptase assay. Format: cell-based. Conditions: read-out: LD Tryptase, CHMC, Iono, 3 pt.
[3] abbreviates: Homo sapiens, Mast cell, low cell density CHMC, tryptase release, 3 pt, read-out: LD Tryptase, CHMC, IgE, 3 pt.
[4] abbreviates: Homo sapiens, Mast cell, low cell density CHMC, tryptase release, 8 pt, read-out: LD Tryptase, CHMC, IgE, 8 pt.
Where [5] appears, read: Homo sapiens, Mast cell, low cell density CHMC, tryptase release, 3 pt.
Setting [6] is: Homo sapiens, Mast cell, low cell density CHMC, tryptase, 3 pt, read-out: LD Tryptase, CHMC, IgE, 3 pt.
Setting [7] is: Homo sapiens, Mast cell, low cell density CHMC, tryptase, 8 pt, read-out: LD Tryptase, CHMC, IgE, 8 pt.
Where [8] appears, read: Homo sapiens, Mast cell, low cell density CHMC, tryptase, 3 pt.
Where [9] appears, read: low cell density CHMC, tryptase release, 3 pt, read-out: LD Tryptase, CHMC, IgE, 3 pt.
Where [10] appears, read: low cell density CHMC, tryptase release, 8 pt, read-out: LD Tryptase, CHMC, IgE, 8 pt.
The mark [11] stands for this setting: low cell density CHMC, tryptase release, 3 pt.
Where [12] appears, read: low cell density CHMC, tryptase release, 3 point, read-out: LD Tryptase, CHMC, IgE, 3 pt.
Where [13] appears, read: low cell density CHMC, tryptase release, 8 point, read-out: LD Tryptase, CHMC, IgE, 8 pt.
[14] abbreviates: low cell density CHMC, tryptase release, 3 point.
[15] abbreviates: Homo sapiens, Mast cell, low cell density CHMC, tryptase release, 3 point, read-out: LD Tryptase, CHMC, IgE, 3 pt.
Where [16] appears, read: Homo sapiens, Mast cell, low cell density CHMC, tryptase release, 8 point, read-out: LD Tryptase, CHMC, IgE, 8 pt.
The mark [17] stands for this setting: Homo sapiens, Mast cell, low cell density CHMC, tryptase release, 3 point.
The mark [18] stands for this setting: low cell density CHMC, tryptase, 3 pt, read-out: LD Tryptase, CHMC, IgE, 3 pt.
[19] abbreviates: low cell density CHMC, tryptase, 3 pt.

Consider `COc1cc(OC)c(-c2nc(N)nc(Nc3ccc4c(c3)NC(=O)[C@H](C)O4)c2F)cc1Cl` [Compound 215], for which the IC50 in experiment [1] (setting [3]) was less than 10 µM; in experiment [1] (setting [4]) it was less than 10 µM; in experiment [2] (setting [5]), greater than 10 µM.
As for `C[C@H]1Oc2ccc(Nc3nc(Nc4cccc(-c5ncco5)c4)ncc3F)cc2NC1=O` [Compound 1283], the IC50 in experiment [1] (setting [6]) was less than 10 µM; in experiment [1] (setting [7]) it was less than 10 µM; in experiment [2] (setting [8]), greater than 10 µM.
Consider `Cc1cc(Nc2ncc(F)c(Nc3ccc4c(c3)N(C)C(=O)C(C)(C)O4)n2)cc(Cl)c1OC1CCCC1` [Compound 1034, N2-(3-Chloro-4-cyclopentyloxy-5-methylphenyl)-5-fluoro-N4-(3-oxo-2,2,4-trimethyl-benz[1,4]oxazin-6-yl)-2,4-pyrimidinediamine], for which the IC50 was less than 10 µM in experiment [1] (Homo sapiens, Mast cell, low cell density CHMC, tryptase readout, 3 pt, read-out: LD Tryptase, CHMC, IgE, 3 pt) and greater than 10 µM in experiment [2] (Homo sapiens, Mast cell, low cell density CHMC, tryptase readout, 3 pt).
Regarding `CCOC(=O)N1CCN(c2cccc(Nc3ncc(F)c(NC4CCCCC4)n3)c2)CC1` [Compound 1169, N4-Cyclohexyl-N2-[3-(4-ethoxycarbonylpiperazino)phenyl]-5-fluoro-2,4-pyrimidinediamine], the IC50 was less than 10 µM in experiment [1] (setting [6]) and greater than 10 µM in experiment [2] (setting [8]).
Consider `COc1cc(C)c(Nc2ncc(F)c(Nc3ccc4c(c3)NC(C)(C)CO4)n2)cc1Cl` [Compound 216, N2-(3-Chloro-4-methoxy-6-methylphenyl)-N4-(3,4-dihydro-3,3-dimethyl-2H,4H-benz[1,4]oxazin-6-yl)-5-fluoro-2,4-pyrimidinediamine], for which the IC50 was less than 10 µM in experiment [1] (setting [9]), less than 10 µM in experiment [1] (setting [10]) and greater than 10 µM in experiment [2] (setting [11]).
Turning to `CN1CCN(c2ccc(Nc3ncc(F)c(N[C@H]4CCN(Cc5ccccc5)C4)n3)cc2)CC1` [Compound 1182], the IC50 in experiment [1] (setting [6]) and in experiment [2] (setting [8]) was greater than 10 µM throughout.
In the case of `CC1(C)Oc2ccc(Nc3nc(Nc4ccc5cnn(CCCO)c5c4)ncc3F)cc2NC1=O` [Compound 791, N4-(2,2-Dimethyl-3-oxo-4H-benz[1,4]oxazin-6-yl)-5-fluoro-N2-[1-(3-hydroxypropyl)indazol-6-yl]-2,4-pyrimidinediamine], the IC50 is less than 10 µM in experiment [1] (setting [3]), less than 10 µM in experiment [1] (setting [4]) and greater than 10 µM in experiment [2] (setting [5]).
As for `COC(=O)CCNC(=O)c1ccc(Nc2ncc(F)c(Nc3ccc(Cl)c(Cl)c3)n2)cc1` [Compound 1305], the IC50 in experiment [1] (setting [6]), in experiment [1] (setting [7]) and in experiment [2] (setting [8]) was less than 10 µM each time.
`COc1cc(Nc2ncc(F)c(Nc3ccc(OCCO)c(Cl)c3)n2)cc(OC)c1` [Compound 620, N4-[3-Chloro-4-(2-hydroxyethyleneoxy)phenyl]-N2-(3,5-dimethoxyphenyl)-5-fluoro-2,4-pyrimidinediamine]: the IC50 in experiment [1] (setting [12]), in experiment [1] (setting [13]) and in experiment [2] (setting [14]) was less than 10 µM each time.
With `CNC(=O)c1cc(Nc2ncc(F)c(Nc3ccc(Cl)c(C(F)(F)F)c3)n2)ccc1Cl` [Compound 609], the values for the IC50 in experiment [1] (setting [15]), in experiment [1] (setting [16]) and in experiment [2] (setting [17]) were less than 10 µM, less than 10 µM and greater than 10 µM, respectively.
Turning to `COC(=O)CCNC(=O)c1ccc(Nc2ncc(F)c(N(C)c3ccc(Cl)c(Cl)c3)n2)cc1` [Compound 1306], the IC50 in experiment [1] (setting [6]) is less than 10 µM; in experiment [1] (setting [7]), less than 10 µM; in experiment [2] (setting [8]), greater than 10 µM.
Consider `Fc1cnc(Cl)nc1Nc1ccc2c(n1)NCCO2` [Compound 1117, 2-Chloro-5-fluoro-N4-(3,4-dihydro-2H,4H-5-pyrid[1,4]oxazin-6-yl)-4-pyrimidineamine], for which the IC50 in experiment [1] (setting [18]) and in experiment [2] (setting [19]) was greater than 10 µM each time.
For the molecule `CNC(=O)COc1cccc(Nc2ncc(F)c(Nc3ccc(Cl)c(C(=O)NC)c3)n2)c1` [Compound 477, N4-[4-Chloro-3-(N-methylamino)carbonylphenyl]-5-fluoro-N2-[3-(N-methylamino)carbonylmethyleneoxyphenyl]-2,4-pyrimidinediamine], the IC50 in experiment [1] (low cell density, 3 pt, read-out: LD Tryptase, CHMC, IgE, 3 pt) is less than 10 µM; in experiment [1] (low cell density, 8 pt, read-out: LD Tryptase, CHMC, IgE, 8 pt) it was less than 10 µM; in experiment [2] (low cell density, 3 pt), greater than 10 µM.
As to `CC1(C)Oc2ccc(Nc3nc(Nc4ccc5c(cnn5CCCNS(C)(=O)=O)c4)ncc3F)nc2NC1=O` [Compound 836, N4-(2,2-Dimethyl-3-oxo-4H-5-pyrid[1,4]oxazin-6-yl)-5-fluoro-N2-[1-[3-(N-methylsulfonylamino)propyl]indazol-5-yl]-2,4-pyrimidinediamine], the IC50 was less than 10 µM in experiment [1] (setting [9]), less than 10 µM in experiment [1] (setting [10]) and greater than 10 µM in experiment [2] (setting [11]).
`CC1(C)Oc2ccc(Nc3nc(Nc4cccc(-c5cocn5)c4)ncc3F)nc2NC1=O` [Compound 1029, N4-(2,2-Dimethyl-3-oxo-4H-5-pyrid[1,4]oxazin-6-yl)-5-fluoro-N2-[3-(oxazol-4-yl)phenyl]-2,4-pyrimidinediamine]: the IC50 in experiment [1] (low cell density CHMC, tryptase readout, 3 pt, read-out: LD Tryptase, CHMC, IgE, 3 pt) was less than 10 µM; in experiment [1] (low cell density CHMC, tryptase readout, 8 pt, read-out: LD Tryptase, CHMC, IgE, 8 pt), less than 10 µM; in experiment [2] (low cell density CHMC, tryptase readout, 3 pt), greater than 10 µM.
With `COC(=O)COc1ccc(Nc2nc(Nc3ccc4cc[nH]c4c3)ncc2F)cc1Cl` [Compound 631, N4-(3-Chloro-4-methoxycarbonylmethyleneoxyphenyl)-5-fluoro-N2-(indol-6-yl)-2,4-pyrimidinediamine], the IC50 in experiment [1] (setting [12]), in experiment [1] (setting [13]) and in experiment [2] (setting [14]) was less than 10 µM each time.
Consider `CCOC(=O)N1CCN(c2ccc(Nc3ncc(F)c(NC4CCC4)n3)cc2)CC1` [Compound 1111, N4-Cyclobutyl-N2-[4-(4-ethoxycarbonylpiperazino)phenyl]-5-fluoro-2,4-pyrimidinediamine], for which the IC50 in experiment [1] (setting [6]) is less than 10 µM; in experiment [2] (setting [8]), greater than 10 µM.
For `COCCCn1ncc2ccc(Nc3ncc(F)c(Nc4ccc5c(c4)NC(=O)C(C)(C)O5)n3)cc21` [Compound 798, N4-(2,2-Dimethyl-3-oxo-4H-benz[1,4]oxazin-6-yl)-5-fluoro-N2-[1-(3-methoxypropyl)indazol-6-yl]-2,4-pyrimidinediamine], the IC50 in experiment [1] (setting [3]), in experiment [1] (setting [4]) and in experiment [2] (setting [5]) was less than 10 µM each time.
`COc1ccc(Nc2ncc(F)c(Nc3ccc4c(n3)NCCO4)n2)cc1Cl` [Compound 1146, N2-(3-Chloro-4-methoxyphenyl)-N4-(3,4-dihydro-2H,4H-5-pyrid[1,4]oxazin-6-yl)-5-fluoro-2,4-pyrimidinediamine]: the IC50 was less than 10 µM in experiment [1] (setting [18]) and greater than 10 µM in experiment [2] (setting [19]).
With `CC(=O)N(C)c1ccc(Nc2ncc(F)c(NC3CCCCC3)n2)cc1` [Compound 1176, N2-[4-(N-Acetyl-N-methylamino)phenyl]-N4-cyclohexyl-5-fluoro-2,4-pyrimidinediamine], the IC50 was less than 10 µM in experiment [1] (setting [6]) and greater than 10 µM in experiment [2] (setting [8]).
On the same counts, the results for `COc1cc(Nc2ncc(F)c(N(C)c3ccc4c(c3)N(C)C(=O)C(C)(C)O4)n2)cc(OC)c1` [Compound 393] are less than 10 µM and less than 10 µM.
Consider `COCCCn1ncc2cc(Nc3ncc(F)c(Nc4ccc5c(c4)NC(=O)C(C)(C)O5)n3)ccc21` [Compound 794, N4-(2,2-Dimethyl-3-oxo-4H-benz[1,4]oxazin-6-yl)-5-fluoro-N2-[1-(3-methoxypropyl)indazol-5-yl]-2,4-pyrimidinediamine], for which the values for the IC50 in experiment [1] (setting [3]), in experiment [1] (setting [4]) and in experiment [2] (setting [5]) were less than 10 µM, less than 10 µM and greater than 10 µM, respectively.
As to `CCOC(=O)N1CCN(c2ccc(Nc3ncc(F)c(NC4CNC4)n3)cc2)CC1` [Compound 1125], the IC50 in experiment [1] (setting [6]) and in experiment [2] (setting [8]) was greater than 10 µM throughout.
For `COC(=O)CN(c1ccc2c(c1)OCCO2)c1nc(Nc2cccc(-c3ncco3)c2)ncc1F` [Compound 444], the values for the IC50 in experiment [1] (setting [6]) and in experiment [2] (setting [8]) were less than 10 µM and greater than 10 µM, respectively.
As to `COc1cc(N(C)c2nc(Nc3ccc4[nH]ccc4c3)ncc2F)ccc1Cl` [Compound 590, N4-(4-Chloro-3-methoxyphenyl)-5-fluoro-N2-(indol-5-yl)-N4-methyl-2,4-pyrimidinediamine], the values for the IC50 in experiment [1] (setting [15]), in experiment [1] (setting [16]) and in experiment [2] (setting [17]) were less than 10 µM, less than 10 µM and greater than 10 µM, respectively.
